Experimental data reported in EP1911452A1, “Silicon-derivates for PET-Imaging” (Bayer Schering Pharma Aktiengesellschaft, priority 2006, dated 2008).

Assay: Hydrolytic stability: time dependent degree of hydrolysis of the 19F fluorosilane to the hydroxy compound at physiological pH (7.0)
Type: physicochemical
Conditions: ratio of hydrolytic halflife to radioactive halflife of the 18-F isotope (1.83 hours)
Protocol: The time dependent degree of hydrolysis of compounds of formula I in which X is a fluorine atom of isotope 19 to compounds of formula I in which X is a hydroxy group was determined at physiological pH (7.0). From the kinetics the hydrolytic halflife (t1/2) measured in hours [h] of compounds of formula I in which X is a fluorine atom of isotope 19 were calculated (Table 1, column 2).
The ratio of the hydrolytic halflifes of compounds of formula I in which X is a fluorine atom of isotope 19 and the radioactive halflife of the 18-F isotope (1.83 hours) is defined as relative stability (Table 1, column 3).
After 6 hours 90% of the 18-F isotope have been decayed.
Compounds of formula I in which X is a fluorine atom of isotope 18 are considered as useful for PET applications if the relative stability of their analogs bearing a fluorine atom of isotope 19 exceed a factor of four and if at least 50% of these compounds remain intact after 6 hours under hydrolytic conditions at pH 7.

Structure (SMILES)	rel. stability
CC(C)[Si](F)(c1ccc(COC2CCCCO2)cc1)C(C)C (racemic) [Compound 3a - F, (RS)-Fluoro-diisopropyl-[4-(tetrahydro-pyran-2-yloxymethyl)-phenyl]-silane]	27.0
CC(C)[Si](F)(c1cccc(CCOC2CCCCO2)c1)C(C)C (racemic) [Compound 3e - F, (RS)-Fluoro-diisopropyl-{3-[2-(tetrahydro-pyran-2-yloxy)-ethyl]-phenyl}-silane]	> 54.6
F[Si](c1ccccc1)(c1ccccc1)c1ccc(CCOC2CCCCO2)cc1 (racemic) [Compound 3f - F, (RS)-Fluoro-diphenyl-{4-[2-(tetrahydro-pyran-2-yloxy)-ethyl]-phenyl}-silane]	0.04
CC(C)C[Si](F)(CC(C)C)c1ccc(COC2CCCCO2)cc1 (racemic) [Compound 3g - F, (RS)-Fluoro-diisobutyl-[4-(tetrahydro-pyran-2-yloxymethyl)-phenyl]-silane]	4.5
CC(C)[Si](F)(c1ccc(C(=O)O)cc1)C(C)C [Compound 5a - F, 4-(Fluoro-diisopropyl-silanyl)-benzoic acid]	6.1
CC(C)C[Si](F)(CC(C)C)c1ccc(C(=O)O)cc1 [Compound 5g - F, 4-(Fluoro-diisobutyl-silanyl)-benzoic acid]	1.9
CC(C)C[Si](F)(CC(C)C)c1ccc(CC(=O)O)cc1 [Compound 5h - F, [4-(Fluoro-diisobutyl-silanyl)-phenyl]-acetic acid]	4.8
CC(C)C[Si](F)(CCCCC(=O)Nc1ccccc1)CC(C)C [Compound 30a - 1F, 5-(Fluoro-diisobutyl-silanyl)-pentanoic acid phenylamide]	7.5
